Test results taken from PubChem BioAssay AID1963982 (Molecular Pharmacology Branch, DTP, NCI, 2024).
Where “and” joins values, the source holds several entries; their conditions need not be identical. Identical values can stand only once.

Tested on: 313798-341-R-J2-PDC spheroids, viability
Assay: Anticancer human tumor 313798-341-R-J2-PDC patient-derived cervical squamous cell carcinoma cell line growth inhibition [PI3K]
Details: spheroids with HUVEC and MSC; for viability, T/C: stronger effect = lower value
Method in brief: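 High-throughput combination screen: PI3K inhibitors crossed with targeted small molecules on complex spheroids of tumor cells, HUVEC and MSCs at 37 degrees C, 5% CO2. Top concentration was at or near clinical Cmax (otherwise 10 microM), with half-log decrements.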

[1] = curve of first compound, second compound 0.0316 µM
[2] = curve of first compound, second compound 0.1 µM
[3] = curve of first compound, second compound 0.316 µM
[4] = curve of first compound, second compound 1 µM
[5] = second compound 0.0316 µM, first compound 0.0316 µM
[6] = second compound 0.0316 µM, first compound 0.1 µM
[7] = second compound 0.0316 µM, first compound 0.316 µM
[8] = second compound 0.0316 µM, first compound 1 µM
[9] = second compound 0.0316 µM, first compound 3.16 µM
[10] = second compound 0.0316 µM, first compound 10 µM
[11] = second compound 0.1 µM, first compound 0.0316 µM
[12] = second compound 0.1 µM, first compound 0.1 µM
[13] = second compound 0.1 µM, first compound 0.316 µM
[14] = second compound 0.1 µM, first compound 1 µM
[15] = second compound 0.1 µM, first compound 3.16 µM
[16] = second compound 0.1 µM, first compound 10 µM
[17] = second compound 0.316 µM, first compound 0.0316 µM
[18] = second compound 0.316 µM, first compound 0.1 µM
[19] = second compound 0.316 µM, first compound 0.316 µM
[20] = second compound 0.316 µM, first compound 1 µM
[21] = second compound 0.316 µM, first compound 3.16 µM
[22] = second compound 0.316 µM, first compound 10 µM
[23] = second compound 1 µM, first compound 0.0316 µM
[24] = second compound 1 µM, first compound 0.1 µM
[25] = second compound 1 µM, first compound 0.316 µM
[26] = second compound 1 µM, first compound 1 µM
[27] = second compound 1 µM, first compound 3.16 µM
[28] = second compound 1 µM, first compound 10 µM
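Further: spheroids exposed to compounds for seven days.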
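Wherever viability, T/C is given: 100% = DMSO vehicle control viability.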

CC1(C)CCC(Nc2ncc(C(F)(F)F)c(-c3c[nH]c4c(P(C)(C)=O)c(C#N)ccc34)n2)CN1 (configuration not stated) + CC(Nc1ccc2c(c1)OCCn1cc(N3C(=O)OCC3C(F)F)nc1-2)C(N)=O
IC50 (curve of first compound, second compound 0.00316 µM): 0.0316 µM
IC50 (curve of first compound, second compound 0.01 µM): < 0.0316 µM
IC50 [1]: < 0.0316 µM
IC50 [2]: < 0.0316 µM
IC50 [3]: < 0.0316 µM
IC50 [4]: < 0.0316 µM
viability, T/C (second compound 0.00316 µM, first compound 0.0316 µM): 53.1%
viability, T/C (second compound 0.00316 µM, first compound 0.1 µM): 45.8%
viability, T/C (second compound 0.00316 µM, first compound 0.316 µM): 42.4%
viability, T/C (second compound 0.00316 µM, first compound 1 µM): 48.7%
viability, T/C (second compound 0.00316 µM, first compound 3.16 µM): 51.6%
viability, T/C (second compound 0.00316 µM, first compound 10 µM): 29.3%
viability, T/C (second compound 0.01 µM, first compound 0.0316 µM): 49.6%
viability, T/C (second compound 0.01 µM, first compound 0.1 µM): 47.2%
viability, T/C (second compound 0.01 µM, first compound 0.316 µM): 46.1%
viability, T/C (second compound 0.01 µM, first compound 1 µM): 44.1%
viability, T/C (second compound 0.01 µM, first compound 3.16 µM): 49.4%
viability, T/C (second compound 0.01 µM, first compound 10 µM): 25.4%
viability, T/C [5]: 45%
viability, T/C [6]: 40.9%
viability, T/C [7]: 37.9%
viability, T/C [8]: 38.6%
viability, T/C [9]: 41%
viability, T/C [10]: 29.1%
viability, T/C [11]: 36.7%
viability, T/C [12]: 31.6%
viability, T/C [13]: 31.1%
viability, T/C [14]: 31.7%
viability, T/C [15]: 30.9%
viability, T/C [16]: 14.8%
viability, T/C [17]: 26.4%
viability, T/C [18]: 25.3%
viability, T/C [19]: 24.9%
viability, T/C [20]: 23.1%
viability, T/C [21]: 29.3%
viability, T/C [22]: 8.87%
viability, T/C [23]: 21.1%
viability, T/C [24]: 20.6%
viability, T/C [25]: 21.5%
viability, T/C [26]: 21.9%
viability, T/C [27]: 23.9%
viability, T/C [28]: 3.07%

CC(Cn1ccc(-c2ccc(C#N)c(Cl)c2)n1)NC(=O)c1cc(C(C)O)[nH]n1 (configuration not stated) + CC(Nc1ncnc2nc[nH]c12)c1cc2cccc(Cl)c2c(=O)n1-c1ccccc1
IC50 [1]: > 10 µM
IC50 [2]: > 10 µM
IC50 [3]: > 10 µM
IC50 [4]: > 10 µM
IC50 (curve of first compound, second compound 3.16 µM): > 10 µM
IC50 (curve of first compound, second compound 10 µM): > 10 µM
viability, T/C [5]: 119%
viability, T/C [6]: 103%
viability, T/C [7]: 106%
viability, T/C [8]: 115%
viability, T/C [9]: 101%
viability, T/C [10]: 101%
viability, T/C [11]: 101%
viability, T/C [12]: 105%
viability, T/C [13]: 104%
viability, T/C [14]: 103%
viability, T/C [15]: 98%
viability, T/C [16]: 95%
viability, T/C [17]: 90.9%
viability, T/C [18]: 103%
viability, T/C [19]: 96.6%
viability, T/C [20]: 101%
viability, T/C [21]: 102%
viability, T/C [22]: 90%
viability, T/C [23]: 113%
viability, T/C [24]: 106%
viability, T/C [25]: 108%
viability, T/C [26]: 101%
viability, T/C [27]: 96.2%
viability, T/C [28]: 91.5%
viability, T/C (second compound 3.16 µM, first compound 0.0316 µM): 108%
viability, T/C (second compound 3.16 µM, first compound 0.1 µM): 103%
viability, T/C (second compound 3.16 µM, first compound 0.316 µM): 100%
viability, T/C (second compound 3.16 µM, first compound 1 µM): 107%
viability, T/C (second compound 3.16 µM, first compound 3.16 µM): 105%
viability, T/C (second compound 3.16 µM, first compound 10 µM): 93.4%
viability, T/C (second compound 10 µM, first compound 0.0316 µM): 87.8%
viability, T/C (second compound 10 µM, first compound 0.1 µM): 88.3%
viability, T/C (second compound 10 µM, first compound 0.316 µM): 94.6%
viability, T/C (second compound 10 µM, first compound 1 µM): 100%
viability, T/C (second compound 10 µM, first compound 3.16 µM): 90.8%
viability, T/C (second compound 10 µM, first compound 10 µM): 81.7%

C[C@@H](NC(=O)c1ncnc(N)c1Cl)c1ncc(C(=O)Nc2cc(C(F)(F)F)c(Cl)cn2)s1
viability, T/C (compound 0.0316 µM): 94.6% [middle of 4 runs]
viability, T/C (compound 0.1 µM): 102% [middle of 4 runs]
viability, T/C (compound 0.316 µM): 99.1% [middle of 4 runs]
viability, T/C (compound 1 µM): 97.8% [middle of 4 runs]
viability, T/C (compound 3.16 µM): 120% [middle of 4 runs]
IC50 (curve of compound): > 10 µM and 5.95 µM

CC(C)NCC(C(=O)N1CCN(c2ncnc3c2C(C)CC3O)CC1)c1ccc(Cl)cc1 (configuration not stated)
viability, T/C (compound 0.0316 µM): 97.6% [middle of 4 runs]
viability, T/C (compound 0.1 µM): 96.4% [middle of 4 runs]
viability, T/C (compound 0.316 µM): 92.8% [middle of 4 runs]
viability, T/C (compound 1 µM): 65.8% [middle of 4 runs]
viability, T/C (compound 3.16 µM): 41.6% [middle of 4 runs]
viability, T/C (compound 10 µM): 31.5% [middle of 4 runs]
IC50 (curve of compound): 2 µM [middle of 4 runs]
